Assays:
[1] = target: T1, hClpP (Homo sapiens, UniProt Q16740); assay: activating ClpP hydrolysis of FITC-casein (fluorescence kinetic detection); type: biochemical; settings: hClpP 1 μM, FITC-Casein 4 μM, 37° C.
T1 construct: made in house
In short: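 hClpP at 1 μM final preincubated with compounds (assay-buffer dilutions 200 μM–2 nM, before mixing) 30 min at 37 °C, then 4 μM final FITC-casein added. Fluorescence read kinetically at 37 °C every 1 min for 15 min, duplicate wells.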

[2] = test system: MV4; 11 cells; assay: inhibiting the growth of MV4; 11 cells; type: cell-based; settings: Homo sapiens

T1 sequence (Q16740 57-277): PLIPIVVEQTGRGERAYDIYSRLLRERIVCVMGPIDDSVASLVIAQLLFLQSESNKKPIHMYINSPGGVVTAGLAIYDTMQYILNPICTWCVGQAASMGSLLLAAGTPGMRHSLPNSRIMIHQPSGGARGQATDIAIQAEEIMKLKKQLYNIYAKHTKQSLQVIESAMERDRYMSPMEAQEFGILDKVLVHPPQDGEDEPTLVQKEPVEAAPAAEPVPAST

Row | SMILES | EC50 [1] [µM] | IC50 [2] [µM]
1 | CNc1ccc(Cn2c(=O)c3c(c4cccnc42)CCN(Cc2cccc(C#N)c2)C3)cc1 [Compound I-89, 6-(4-methylaminobenzyl)-3-(3-cyanobenzyl)-2,3,4,6-tetrahydropyrido[3,4-c][1,8]naphthyridine-5-(1H)-one] | 1 to 10 | 1 to 10
2 | CN(C)c1ccc(Cn2c(=O)c3c(c4cccnc42)CCN(Cc2cccc(C#N)c2)C3)cc1 [Compound I-90, 6-(4-dimethylaminobenzyl)-3-(3-cyanobenzyl)-2,3,4,6-tetrahydropyrido[3,4-c][1,8]naphthyridine-5-(1H)-one] | 1 to 10 | 1 to 10
3 | Cc1ccc(Cn2c(=O)c3c(c4cccnc42)CCN(Cc2cccc(C#N)c2)C3)cc1 [Compound I-91, 6-(4-methylbenzyl)-3-(3-cyanobenzyl)-2,3,4,6-tetrahydropyrido[3,4-c][1,8]naphthyridine-5-(1H)-one] | < 1 | < 1
4 | Cc1ccc(Cn2c(=O)c3c(c4cccnc42)CCN(Cc2cccc(Cl)c2)C3)cc1 [Compound I-92, 6-(4-methylbenzyl)-3-(3-chlorobenzyl)-2,3,4,6-tetrahydropyrido[3,4-c][1,8]naphthyridine-5-(1H)-one] | < 1 | < 1
5 | Cc1ccc(Cn2c(=O)c3c(c4cccnc42)CCN(Cc2cccc(F)c2)C3)cc1 [Compound I-93, 6-(4-methylbenzyl)-3-(3-fluorobenzyl)-2,3,4,6-tetrahydropyrido[3,4-c][1,8]naphthyridine-5-(1H)-one] | < 1 | < 1
6 | CCc1ccc(Cn2c(=O)c3c(c4cccnc42)CCN(Cc2cccc(C#N)c2)C3)cc1 [Compound I-94, 6-(4-ethylbenzyl)-3-(3-cyanobenzyl)-2,3,4,6-tetrahydropyrido[3,4-c][1,8]naphthyridine-5-(1H)-one] | < 1 | < 1
7 | CCc1ccc(Cn2c(=O)c3c(c4cccnc42)CCN(Cc2cccc(F)c2)C3)cc1 [Compound I-95, 6-(4-ethylbenzyl)-3-(3-fluorobenzyl)-2,3,4,6-tetrahydropyrido[3,4-c][1,8]naphthyridine-5-(1H)-one] | < 1 | < 1
8 | CCc1ccc(Cn2c(=O)c3c(c4cccnc42)CCN(Cc2cccc(Cl)c2)C3)cc1 [Compound I-96, 6-(4-ethylbenzyl)-3-(3-chlorobenzyl)-2,3,4,6-tetrahydropyrido[3,4-c][1,8]naphthyridine-5-(1H)-one] | < 1 | < 1
9 | O=c1c2c(c3cccnc3n1Cc1ccc3c(c1)OCCO3)CCN(Cc1cccc(Cl)c1)C2 [Compound I-97, 3-(3-chlorobenzyl)-6-((2,3-dihydro[1,4]benzodioxin-6-yl)methyl)-2,3,4,6-tetrahydropyrido[3,4-c][1,8]naphthyridine-5(1H)-one] | 1 to 10 | 1 to 10
10 | N#Cc1cccc(CN2CCc3c(c(=O)n(Cc4ccc5c(c4)OCO5)c4ncccc34)C2)c1 [Compound I-98, 6-([1,3]benzodioxol-5-ylmethyl)-3-(3-cyanobenzyl)-2,3,4,6-tetrahydropyrido[3,4-c][1,8]naphthyridine-5-(1H)-one] | 1 to 10 | 1 to 10
11 | COc1ccc(Cn2c(=O)c3c(c4cccnc42)CCN(Cc2cccc(F)c2)C3)cc1 [Compound I-99, 6-(4-methoxybenzyl)-3-(3-fluorobenzyl)-2,3,4,6-tetrahydropyrido[3,4-c][1,8]naphthyridine-5-(1H)-one] | < 1 | < 1
12 | COc1ccc(Cn2c(=O)c3c(c4cccnc42)CCN(Cc2cccc(Cl)c2)C3)cc1 [Compound I-100, 6-(4-methoxybenzyl)-3-(3-chlorobenzyl)-2,3,4,6-tetrahydropyrido[3,4-c][1,8]naphthyridine-5-(1H)-one] | < 1 | < 1
13 | O=c1c2c(c3cocc3n1Cc1ccc(C(F)(F)F)cc1)CCN(Cc1ccccc1)C2 [Compound I-101, 7-benzyl-4-(4-trifluoromethylbenzyl)-6,7,8,9-tetrahydrofuro[3,4-C][2,7]naphthyridine-5(4H)-one] | < 1 | < 1
14 | O=c1c2c(c3cscc3n1Cc1ccc(C(F)(F)F)cc1)CCN(Cc1ccccc1)C2 [Compound I-102, 7-benzyl-4-(4-trifluoromethylbenzyl)-6,7,8,9-tetrahydrothieno[3,4-C][2,7]naphthyridine-5(4H)-one] | < 1 | < 1
15 | O=c1c2c(c3sccc3n1Cc1ccc(C(F)(F)F)cc1)CCN(Cc1ccccc1)C2 [Compound I-103, 7-benzyl-4-(4-trifluoromethylbenzyl)-6,7,8,9-tetrahydrothieno[3,2-C][2,7]naphthyridine-5(4H)-one] | < 1 | < 1
16 | O=c1c2c(c3ccsc3n1Cc1ccc(C(F)(F)F)cc1)CCN(Cc1ccccc1)C2 [Compound I-104, 7-benzyl-4-(4-trifluoromethylbenzyl)-6,7,8,9-tetrahydrothieno[2,3-C][2,7]naphthyridine-5(4H)-one] | < 1 | < 1
17 | O=c1c2c(c3scnc3n1Cc1ccc(C(F)(F)F)cc1)CCN(Cc1ccccc1)C2 [Compound I-105, 7-benzyl-4-(4-trifluoromethylbenzyl)-6,7,8,9-tetrahydrothiazolo[4,5-C][2,7]naphthyridine-5(4H)-one] | 1 to 10 | 1 to 10

Row | SMILES | EC50 [1] [µM] | IC50 [2] [µM]
18 | Cc1ccccc1Cn1c(=O)c2c(n3ccnc13)CCN(Cc1ccccc1)C2 [Compound I-106, 7-benzyl-4-(2-methylbenzyl)-6,7,8,9-tetrahydroimidazo[1,2-a]pyrido[3,4-e]pyrimidine-5(4H)-one] | 1 to 10 | 1 to 10
19 | O=c1c2c(n3ccnc3n1Cc1ccccc1)CCN(Cc1ccccc1)C2 [Compound I-107, 4,7-dibenzyl-6,7,8,9-tetrahydroimidazo[1,2-a]pyrido[3,4-e]pyrimidine-5(4H)-one] | 1 to 10 | 1 to 10
20 | O=c1c2c(n3ccnc3n1Cc1ccccc1)CCN(Cc1cccc(F)c1)C2 [Compound I-108, 7-(3-fluorobenzyl)-4-benzyl-6,7,8,9-tetrahydroimidazo[1,2-a]pyrido[3,4-e]pyrimidine-5(4H)-one] | < 1 | < 1
21 | O=c1c2c(n3ccnc3n1Cc1ccccc1)CCN(Cc1cccc(Cl)c1)C2 [Compound I-109, 7-(3-chlorobenzyl)-4-benzyl-6,7,8,9-tetrahydroimidazo[1,2-a]pyrido[3,4-e]pyrimidine-5(4H)-one] | < 1 | < 1
22 | Cc1cccc(CN2CCc3c(c(=O)n(Cc4ccccc4)c4nccn34)C2)c1 [Compound I-110, 7-(3-methylbenzyl)-4-benzyl-6,7,8,9-tetrahydroimidazo[1,2-a]pyrido[3,4-e]pyrimidine-5(4H)-one] | < 1 | < 1
23 | N#Cc1cccc(CN2CCc3c(c(=O)n(Cc4ccccc4)c4nccn34)C2)c1 [Compound I-111, 7-(3-cyanobenzyl)-4-benzyl-6,7,8,9-tetrahydroimidazo[1,2-a]pyrido[3,4-e]pyrimidine-5(4H)-one] | < 1 | < 1
24 | O=c1c2c(n3ccnc3n1Cc1ccc(F)cc1)CCN(Cc1ccccc1)C2 [Compound I-112, 7-benzyl-4-(4-fluorobenzyl)-6,7,8,9-tetrahydroimidazo[1,2-a]pyrido[3,4-e]pyrimidine-5(4H)-one] | < 1 | < 1
25 | O=c1c2c(n3ccnc3n1Cc1ccc(F)cc1)CCN(Cc1cccc(F)c1)C2 [Compound I-113, 7-(3-fluorobenzyl)-4-(4-fluorobenzyl)-6,7,8,9-tetrahydroimidazo[1,2-a]pyrido[3,4-e]pyrimidine-5(4H)-one] | < 1 | < 1
26 | O=c1c2c(n3ccnc3n1Cc1ccc(F)cc1)CCN(Cc1cccc(Cl)c1)C2 [Compound I-114, 7-(3-chlorobenzyl)-4-(4-fluorobenzyl)-6,7,8,9-tetrahydroimidazo[1,2-a]pyrido[3,4-e]pyrimidine-5(4H)-one] | < 1 | < 1
27 | Cc1cccc(CN2CCc3c(c(=O)n(Cc4ccc(F)cc4)c4nccn34)C2)c1 [Compound I-115, 7-(3-methylbenzyl)-4-(4-fluorobenzyl)-6,7,8,9-tetrahydroimidazo[1,2-a]pyrido[3,4-e]pyrimidine-5(4H)-one] | < 1 | < 1
28 | N#Cc1cccc(CN2CCc3c(c(=O)n(Cc4ccc(F)cc4)c4nccn34)C2)c1 [Compound I-116, 7-(3-cyanobenzyl)-4-(4-fluorobenzyl)-6,7,8,9-tetrahydroimidazo[1,2-a]pyrido[3,4-e]pyrimidine-5(4H)-one] | < 1 | < 1
29 | O=c1c2c(n3ccnc3n1Cc1ccc(Cl)cc1)CCN(Cc1ccccc1)C2 [Compound I-117, 7-benzyl-4-(4-chlorobenzyl)-6,7,8,9-tetrahydroimidazo[1,2-a]pyrido[3,4-e]pyrimidine-5(4H)-one] | < 1 | < 1
30 | O=c1c2c(n3ccnc3n1Cc1ccc(Cl)cc1)CCN(Cc1cccc(F)c1)C2 [Compound I-118, 7-(3-fluorobenzyl)-4-(4-chlorobenzyl)-6,7,8,9-tetrahydroimidazo[1,2-a]pyrido[3,4-e]pyrimidine-5(4H)-one] | < 1 | < 1
31 | O=c1c2c(n3ccnc3n1Cc1ccc(Cl)cc1)CCN(Cc1cccc(Cl)c1)C2 [Compound I-119, 7-(3-chlorobenzyl)-4-(4-chlorobenzyl)-6,7,8,9-tetrahydroimidazo[1,2-a]pyrido[3,4-e]pyrimidine-5(4H)-one] | < 1 | < 1
32 | Cc1cccc(CN2CCc3c(c(=O)n(Cc4ccc(Cl)cc4)c4nccn34)C2)c1 [Compound I-120, 7-(3-methylbenzyl)-4-(4-chlorobenzyl)-6,7,8,9-tetrahydroimidazo[1,2-a]pyrido[3,4-e]pyrimidine-5(4H)-one] | < 1 | < 1
33 | N#Cc1cccc(CN2CCc3c(c(=O)n(Cc4ccc(Cl)cc4)c4nccn34)C2)c1 [Compound I-121, 7-(3-cyanobenzyl)-4-(4-chlorobenzyl)-6,7,8,9-tetrahydroimidazo[1,2-a]pyrido[3,4-e]pyrimidine-5(4H)-one] | < 1 | < 1
